# According to US11629335B2, “Methods of improving vector transduction efficiency into T lymphocytes” (CELGENE CORPORATION, priority 2014, dated 2023):
# How the values were obtained:
# [1] = system: primary human T lymphocytes; assay: Lentiviral transduction efficiency of primary human T lymphocytes with CAR vector JL28.2, FACS for VEGFR2+ cells; type: cell-based; conditions: for transduced cells VEGFR2+: in presence of DD, MOI 1.8; for VEGFR2+ cells: 6 μM BX795 before and concurrently, nine hours total (Pre-treated+Concurrent); for VEGFR2 expression as compared to DD Only Control: day 3 and day 8
# Description: Lentivirus encoding the vector JL28.2 (VEGFR2-CD28TM-CD28IC-P2A-GFP), which encodes a chimeric antigen receptor composed of VEGFR2 and GFP protein, was added to the activated T lymphocyte culture at a multiplicity of infection (MOI) of 1.8. Fluorescence-activated cell sorting (FACS) was used to determine the proportion of T lymphocytes expressing VEGFR2 as a marker for successfully transduced cells.
# Transduced lymphocytes were then analyzed by FACS to determine the proportion of successfully transduced cells.
# T lymphocytes were cultured for eight days after transduction, and VEGFR2 expression was monitored at days 3 and 8 post-transduction.
# Cells were analyzed by FACS for viability.
# Primary human T lymphocytes were cultured as in Section 6.3.1 and analyzed by FACS for expression of VEGFR2.
# [2] = system: primary human T lymphocytes; assay: Viability of primary human T lymphocytes after lentiviral transduction, by FACS; conditions: absence of 2-AP, JL28.2 MOI 3, 50 U/ml IL-2; without DD or PS 84%
# Description: Primary human T lymphocytes were cultured in RPMI-1640 media supplemented with 10% (v/v) fetal bovine serum (FBS), and activated with anti-CD3/CD28 Dynabeads® at a Dynabead:T lymphocyte ratio of 3:1 for 24 hours. 2-Aminopurine (2-AP) was added to cultures and incubated for 90 minutes at 37 C. DEAE-dextran (DD) or protamine sulfate (PS) were added to the cultures in the presence of 50 U/ml IL-2 and JL28.2 lentiviral vector at an MOI of 3. Cells were analyzed by FACS for viability.
compound,measurement,setting,value
"Nc1ncc2[nH]cnc2n1 [2-AP, 2-Aminopurine]",transduction efficiency as compared to cells not exposed to 2-AP (Control),"[1]; 2-AP 2.5 mM, 5 mM or 10 mM, pretreated 90 minutes, then 5 hours with lentivirus, in presence of DD or PS",increased transduction efficiency
O=C(NCCCNc1nc(Nc2cccc(NC(=O)N3CCCC3)c2)ncc1I)c1cccs1 [BX795],transduced cells VEGFR2+,[1]; 1 μM BX795 added concurrently with lentivirus for six hours,7.63%
same,VEGFR2+ cells,[1]; day 3 post-transduction,18.4%
same,VEGFR2+ cells,[1]; day 8 post-transduction,10.6%
same,VEGFR2 expression level relative to DD Only cultures,[1]; 6 μM BX795 both before and during lentiviral transduction,roughly twice as high
same,VEGFR2 expression as compared to DD Only Control,[1]; 6 μM BX795 concurrently with lentiviral transduction for six hours (Concurrent),no improvement
same,VEGFR2 expression as compared to DD Only Control,[1]; 6 μM BX795 for three hours before lentiviral transduction (Pre-treated),increase
same,transduced cells VEGFR2+,[1]; 10 μM BX795 added concurrently with lentivirus for six hours,10.5%
protamine sulfate [PS],cells VEGFR2+,"[1]; transformation reagent alone, no 2-AP, JL28.2 MOI 3, without DD or PS 4.49%",0.565%
same,viable cells after lentiviral transduction,[2],84.9%
